According to the NIST ThermoML archive (doi:10.1016/j.fluid.2012.01.007):

Assay: excess molar enthalpy (molar enthalpy of mixing); xn = mol fraction of the nth substance listed
Details: 101 kPa, Liquid, Flow calorimetry

CCCCCO [pentan-1-ol] + C1CCCCC1
excess molar enthalpy [kcal/mol]
Details | 298.15 K | 313.15 K
x1 = 0.05 | 0.0797 | 0.107
x1 = 0.1 | – | 0.139
x1 = 0.1001 | 0.105 | –
x1 = 0.1501 | 0.124 | 0.161
x1 = 0.2021 | – | 0.177
x1 = 0.2022 | 0.139 | –
x1 = 0.2522 | 0.149 | 0.188
x1 = 0.3022 | 0.155 | 0.193
x1 = 0.3521 | – | 0.196
x1 = 0.3523 | 0.158 | –
x1 = 0.4022 | – | 0.194
x1 = 0.4023 | 0.157 | –
x1 = 0.4522 | – | 0.187
x1 = 0.4523 | 0.153 | –
x1 = 0.5022 | 0.146 | 0.178
x1 = 0.5522 | 0.137 | 0.17
x1 = 0.6022 | 0.126 | 0.152
x1 = 0.6519 | – | 0.139
x1 = 0.6522 | 0.113 | –
x1 = 0.7019 | – | 0.118
x1 = 0.7022 | 0.0982 | –
x1 = 0.7521 | – | 0.0985
x1 = 0.7522 | 0.083 | –
x1 = 0.8021 | 0.065 | 0.0799
x1 = 0.8501 | 0.0493 | 0.0598
x1 = 0.9 | 0.033 | 0.0381
x1 = 0.95 | 0.0162 | 0.0191
x1 = 1 | 0 | 0

CCCCCO [pentan-1-ol] + Cc1ccccc1
excess molar enthalpy [kcal/mol]
Details | 298.15 K | 313.15 K
x1 = 0.0511 | 0.129 | 0.143
x1 = 0.1004 | 0.182 | 0.211
x1 = 0.1497 | 0.211 | –
x1 = 0.1498 | – | 0.252
x1 = 0.2012 | 0.232 | –
x1 = 0.2013 | – | 0.279
x1 = 0.2507 | 0.244 | –
x1 = 0.2508 | – | 0.294
x1 = 0.3003 | 0.251 | 0.299
x1 = 0.35 | 0.254 | 0.299
x1 = 0.3999 | – | 0.3
x1 = 0.4018 | 0.249 | –
x1 = 0.4516 | 0.242 | –
x1 = 0.4518 | – | 0.287
x1 = 0.5016 | 0.229 | 0.277
x1 = 0.5517 | 0.214 | 0.26
x1 = 0.6018 | 0.195 | –
x1 = 0.6019 | – | 0.24
x1 = 0.65 | 0.174 | –
x1 = 0.6501 | – | 0.216
x1 = 0.7003 | 0.151 | –
x1 = 0.7004 | – | 0.19
x1 = 0.7507 | 0.126 | –
x1 = 0.7508 | – | 0.159
x1 = 0.8012 | 0.0992 | –
x1 = 0.8013 | – | 0.129
x1 = 0.8497 | 0.0747 | –
x1 = 0.8498 | – | 0.0978
x1 = 0.9004 | 0.0485 | –
x1 = 0.9005 | – | 0.0638
x1 = 0.9491 | 0.0243 | –
x1 = 0.9492 | – | 0.0315
x1 = 1 | 0 | 0

Cc1ccccc1 [toluene] + CCCCCO
x2 = 0
Details | excess molar enthalpy [kcal/mol]
298.15 K | 0
313.15 K | 0

C1CCCCC1 [cyclohexane] + CCCCCO
x2 = 0
Details | excess molar enthalpy [kcal/mol]
298.15 K | 0
313.15 K | 0
